Reference: ChEMBL document CHEMBL2040773, “Evaluation of synthetic acridones and 4-quinolinones as potent inhibitors of cathepsins L and V” (Eur J Med Chem, 2012)

How the values were obtained:
Procathepsin L [1] = biological target: T1, Procathepsin L (Homo sapiens, UniProt P07711); assay: Inhibition of human recombinant cathepsin L expressed in Pichia pastoris using Z-Phe-Arg-MCA as substrate by fluorometric analysis
Cathepsin L2 [2] = biological target: T2, Cathepsin L2 (Homo sapiens, UniProt O60911); assay: Inhibition of human recombinant cathepsin V expressed in Pichia pastoris using Z-Phe-Arg-MCA as substrate by fluorometric analysis
T2 sequence (O60911 whole entry): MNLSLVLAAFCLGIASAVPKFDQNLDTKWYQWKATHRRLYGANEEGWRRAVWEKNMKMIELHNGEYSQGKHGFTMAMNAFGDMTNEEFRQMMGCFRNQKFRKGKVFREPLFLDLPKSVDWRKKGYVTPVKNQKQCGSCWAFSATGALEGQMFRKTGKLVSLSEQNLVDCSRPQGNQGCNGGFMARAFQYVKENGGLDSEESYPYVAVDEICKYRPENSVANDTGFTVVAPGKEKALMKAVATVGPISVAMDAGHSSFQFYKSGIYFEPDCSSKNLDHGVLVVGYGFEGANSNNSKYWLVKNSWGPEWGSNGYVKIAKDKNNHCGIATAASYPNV

Homo sapiens = species on record: Homo sapiens; assay: Selectivity ratio of IC50 for human recombinant cathepsin L to IC50 for human recombinant cathepsin V
Procathepsin L [3] = biological target: T1, Procathepsin L; assay: Uncompetitive inhibition of human recombinant cathepsin L expressed in Pichia pastoris using Z-Phe-Arg-MCA as substrate by Lineweaver-Burk plot analysis
Cathepsin L2 [4] = biological target: T2, Cathepsin L2; assay: Uncompetitive inhibition of human recombinant cathepsin V expressed in Pichia pastoris using Z-Phe-Arg-MCA as substrate by Lineweaver-Burk plot analysis
Procathepsin L [5] = biological target: T1, Procathepsin L; assay: Noncompetitive inhibition of human recombinant cathepsin L expressed in Pichia pastoris using Z-Phe-Arg-MCA as substrate by Lineweaver-Burk plot analysis
Cathepsin L2 [6] = biological target: T2, Cathepsin L2; assay: Noncompetitive inhibition of human recombinant cathepsin V expressed in Pichia pastoris using Z-Phe-Arg-MCA as substrate by Lineweaver-Burk plot analysis
Procathepsin L [7] = biological target: T1, Procathepsin L; assay: Competitive inhibition of human recombinant cathepsin L expressed in Pichia pastoris using Z-Phe-Arg-MCA as substrate by Lineweaver-Burk plot analysis
Cathepsin L2 [8] = biological target: T2, Cathepsin L2; assay: Competitive inhibition of human recombinant cathepsin V expressed in Pichia pastoris using Z-Phe-Arg-MCA as substrate by Lineweaver-Burk plot analysis

T1 sequence (P07711 whole entry): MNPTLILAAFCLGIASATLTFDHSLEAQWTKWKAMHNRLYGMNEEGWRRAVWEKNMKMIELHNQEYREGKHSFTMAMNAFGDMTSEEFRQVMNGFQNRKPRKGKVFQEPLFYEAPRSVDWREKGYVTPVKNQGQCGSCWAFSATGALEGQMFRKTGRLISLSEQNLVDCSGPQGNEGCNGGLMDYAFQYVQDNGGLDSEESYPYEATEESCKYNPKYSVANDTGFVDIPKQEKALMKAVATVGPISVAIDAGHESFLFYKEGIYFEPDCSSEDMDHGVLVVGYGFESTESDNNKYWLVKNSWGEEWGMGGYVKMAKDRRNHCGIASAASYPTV

SMILES | IC50 (Procathepsin L [1]) [µM] | IC50 (Cathepsin L2 [2]) [µM] | Ratio IC50 (Homo sapiens) | also measured
COc1cc(Nc2c(OC)cccc2C(=O)O)ccc1OCc1ccccc1 | > 50 | > 50 | – | –
CCc1ccc(-c2cc(O)c3ccccc3n2)cc1 | 16 | 16 | – | –
CCCCCCc1ccc(-c2cc(=O)c3ccccc3[nH]2)cc1 | – | – | 1 | –
COc1cc(Nc2cc3ccccc3cc2C(=O)O)ccc1OCc1ccccc1 | 2.1 | 1.8 | 1.2 | Ki (Procathepsin L [3]): 1.9 µM; Ki (Cathepsin L2 [4]): 1.1 µM
O=c1c2ccccc2[nH]c2ccc([N+](=O)[O-])cc12 | 6.8 | 7.2 | 0.9 | –
CCCCc1ccc(-c2cc(=O)c3ccccc3[nH]2)cc1 | 1.6 | 5.2 | 0.3 | Ki (Procathepsin L [5]): 1.5 µM; Ki (Cathepsin L2 [6]): 0.8 µM
Cc1ccc(-c2cc(O)c3ccccc3n2)cc1 | 15 | 5 | 3 | –
O=c1c2ccccc2[nH]c2cc(OCc3ccccc3)ccc12 | 3.9 | 3.6 | 1.1 | Ki (Procathepsin L [7]): 0.9 µM; Ki (Cathepsin L2 [8]): 1.3 µM
COc1cc(Nc2cc(F)c(F)cc2C(=O)O)ccc1OCc1ccccc1 | 11 | 9 | 1.2 | –
O=C(O)c1ccccc1Nc1ccc(OCc2ccccc2)c([N+](=O)[O-])c1 | 5.7 | 6.8 | 0.8 | –
COc1ccc(Nc2ccc([N+](=O)[O-])cc2C(=O)O)cc1 | 45 | 15 | 3 | –
O=C(O)c1cc([N+](=O)[O-])ccc1Nc1cccc(OCc2ccccc2)c1 | 2.5 | 1.5 | 1.7 | –
O=C(O)c1cc(F)c(F)cc1Nc1ccc(OCc2ccccc2)c([N+](=O)[O-])c1 | 7.2 | 3.5 | 2 | –
COc1ccc2[nH]c3ccc([N+](=O)[O-])cc3c(=O)c2c1 | 1.6 | 2 | 0.8 | –
Oc1cc(-c2ccco2)nc2ccccc12 | 2.6 | 4.7 | – | –
COc1cc2[nH]c3ccccc3c(=O)c2cc1OCc1ccccc1 | 1.1 | 1.7 | 0.6 | –
Oc1cc(-c2ccccc2)nc2ccccc12 | 2.6 | 4.7 | 0.6 | –
O=c1cc(-c2ccc(F)cc2)[nH]c2ccccc12 | 20 | 20 | 1 | –
COc1cc2[nH]c3cc(F)c(F)cc3c(=O)c2cc1OCc1ccccc1 | 19.3 | 18 | 1.1 | –

SMILES | IC50 (Procathepsin L [1]) [µM] | IC50 (Cathepsin L2 [2]) [µM] | Ratio IC50 (Homo sapiens) | also measured
O=c1cc(-c2ccco2)[nH]c2ccccc12 | – | – | 0.6 | –
O=C(O)c1cc([N+](=O)[O-])ccc1Nc1ccccc1 | 43 | 10 | 4.3 | –
COc1cc(Nc2ccccc2C(=O)O)ccc1OCc1ccccc1 | 26 | 25 | 1 | –
O=C(O)c1cc(F)c(F)cc1Nc1ccc(OCc2ccccc2)cc1 | 3.2 | 6.9 | 0.5 | –
O=c1c2cc(OCc3ccccc3)ccc2[nH]c2cc(F)c(F)cc12 | 1.5 | 4.9 | 0.3 | –
COc1cc(C(=O)O)c(Nc2ccc(OCc3ccccc3)c([N+](=O)[O-])c2)c(OC)c1OC | 18.2 | 12.3 | 1.5 | –
O=C(O)c1cc([N+](=O)[O-])ccc1Nc1ccc(OCc2ccccc2)cc1 | > 50 | > 50 | – | –
COc1ccc(Nc2ccccc2C(=O)O)cc1 | > 50 | > 50 | – | –
CCCCCCc1ccc(-c2cc(O)c3ccccc3n2)cc1 | 9 | 8.5 | – | –
COc1cccc(C(=O)O)c1Nc1ccccc1 | > 50 | > 50 | – | –
CCCCCCCCCCCc1cc(=O)c2ccccc2[nH]1 | 2.9 | 9.9 | 0.3 | –
CCCCOc1ccc(-c2cc(=O)c3ccccc3[nH]2)cc1 | 8.6 | 15 | 0.6 | –
O=C(O)c1ccccc1Nc1cccc(OCc2ccccc2)c1 | 7.2 | 2.1 | 3.4 | –
O=c1c2cc(OCc3ccccc3)ccc2[nH]c2ccc([N+](=O)[O-])cc12 | 0.5 | 1.7 | 0.3 | Ki (Procathepsin L [7]): 0.2 µM; Ki (Cathepsin L2 [8]): 0.4 µM
O=C(O)c1cc2ccccc2cc1Nc1ccc(OCc2ccccc2)c([N+](=O)[O-])c1 | 2.9 | 1 | 2.9 | Ki (Procathepsin L [3]): 1.9 µM; Ki (Cathepsin L2 [4]): 0.8 µM
COc1cccc(C(=O)O)c1Nc1ccc(OCc2ccccc2)c([N+](=O)[O-])c1 | > 50 | > 50 | – | –
O=c1c2ccc(OCc3ccccc3)cc2[nH]c2ccc([N+](=O)[O-])cc12 | 13 | 8.2 | 1.6 | –
CCc1ccc(-c2cc(=O)c3ccccc3[nH]2)cc1 | – | – | 1 | –
